The test system of test [1] is VEGF-induced EBD extravasation. Put plainly: VEGF-induced Dermal Extravasation in Guinea Pig (Miles Assay). It is filed as in vivo. As to conditions: 75 mg/kg. As for the experimental part:
VEGF-induced Dermal Extravasation in Guinea Pig (Miles Assay). Male Hartley guinea pigs (300-600 g) were anesthetized with isofluorane, sheared, and given a single dose of drug or the respective vehicle. The guinea pigs were dosed orally unless indicated otherwise in Table 3. Ten minutes prior to the end of drug treatment, guinea pigs were anesthetized with isofluorane, and 0.5% Evans blue dye (EBD) in PBS (13-15 mg/kg dose of EBD) was injected intravenously. After 5 minutes, triplicate intradermal injections of 100 ng rhVEGF165 in 100 μl PBS and of 100 μl PBS alone were administered on the flank. After 20 minutes, each animal was euthanized with Pentosol, and the skin containing the intradermal injection sites was removed for image analysis.
Using an analog video camera coupled to a PC, an image of each trans-illuminated skin sample was captured, and the integrated optical density of each injection site was measured using ImagePro 4. For each skin sample, the difference between the mean optical density of the VEGF sites and mean optical density of the PBS sites is the measure of VEGF-induced EBD extravasation in that animal. These measured values were averaged per study group to determine the mean VEGF-induced EBD extravasation for each experimental condition, and the group means were then compared to assess inhibition of VEGF-induced EBD extravasation in the drug-treated groups relative to the vehicle-treated controls.
To determine the dose required for 50% inhibition (ID50), the percent inhibition data was plotted as a function of oral dose, using the ‘best-fit’ analysis within MicroSoft Excel software. The ID50 value was verified visually by using the plotted data (horizontal line from 50% y value, at intersection with best-fit line drop vertical line to x axis (dose)).

Test [2] deals with VEGF induced increases in intracellular calcium levels in HUVEC (human umbilical vein endothelial cells). Put plainly: VEGF Stimulated Ca++ Signal in vitro (FLIPR). It is filed as cell-based. As to conditions: VEGF 5 ng/mL; for IC50: 0.01 to 10.0 μM. In a few lines:
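HUVEC loaded with Fluo-4 (45 min, 37° C.), washed, then pre-incubated 30 min with compound (10 μM single dose or 0.01–10.0 μM; 0.1% DMSO) before 5 ng/mL VEGF. Fluorescence at 516 nm read by FLIPR; IC50 from % inhibition of max-min VEGF response.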

In test [3] the target is T1, cytoplasmic domain of the human VEGF receptor (VEGFR-2) (Homo sapiens, UniProt P35968).
T1 construct: The cytoplasmic domain of the human VEGF receptor (VEGFR-2) was expressed as a Histidine-tagged fusion protein; Histidine tag
T1 sequence (P35968 786-1356): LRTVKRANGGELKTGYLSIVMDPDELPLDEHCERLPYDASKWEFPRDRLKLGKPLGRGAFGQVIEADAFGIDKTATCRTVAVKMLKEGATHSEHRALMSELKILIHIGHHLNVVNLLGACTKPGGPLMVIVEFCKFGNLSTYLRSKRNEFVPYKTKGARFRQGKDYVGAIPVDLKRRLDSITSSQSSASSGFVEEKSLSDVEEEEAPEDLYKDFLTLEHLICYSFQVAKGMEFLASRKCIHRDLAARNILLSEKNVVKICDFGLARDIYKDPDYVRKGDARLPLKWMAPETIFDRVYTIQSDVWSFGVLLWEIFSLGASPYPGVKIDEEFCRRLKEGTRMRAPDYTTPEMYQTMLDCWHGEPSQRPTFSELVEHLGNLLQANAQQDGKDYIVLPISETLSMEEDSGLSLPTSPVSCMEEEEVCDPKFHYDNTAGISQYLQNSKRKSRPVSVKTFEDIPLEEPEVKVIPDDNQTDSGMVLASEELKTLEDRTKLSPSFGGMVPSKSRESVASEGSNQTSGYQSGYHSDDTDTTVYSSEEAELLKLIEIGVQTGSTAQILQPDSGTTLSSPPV
Nature of the test: KDR Assay. It is filed as biochemical. As to conditions: His-VEGFR-2; 3.6 μM ATP. In a few lines: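 His-tagged human VEGFR-2 cytoplasmic domain from baculovirus-infected insect cells, acting on poly-Glu-Tyr (4:1)-coated plates with 3.6 μM ATP in Hepes pH 7.4 with MgCl2/MnCl2 and 5% final DMSO, 10 min at 25 °C. Phosphotyrosine detected by peroxidase-conjugated antibody ELISA at 492 nm; IC50 from blank-subtracted OD versus concentration.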

One may read the IC50 as the concentration at which inhibition is half-maximal. The term inhibition denotes the change of the read-out against control, counted positive when it falls.

Take `O=C1Nc2ccccc2C1=CNc1ccc(OCCCCN2CCOCC2)cc1` [Example 206, 3-{[4-(4-Morpholin-4-yl-butoxy)-phenylamino]-methylene}-1,3-dihydro-indol-2-one]: the “Miles Assay % inhibition” value in test [1] (corn oil, oral) turned out to be 74%. The IC50 in test [2] was 670 nM; in test [2] (Homo sapiens), not above 1000 nM; in test [3] it was 240 nM. In test [2] (Homo sapiens), the inhibition at 10 µM turned out to be 96.3%.

Take `CCN(CC)CCCOc1ccc(NC=C2C(=O)Nc3ccccc32)cc1` [Example 214, 3-{[14-(3-Diethylamino-propoxy)-phenylamino]-methylene}-1,3-dihydro-indol-2-one]: the “Miles Assay % inhibition” value in test [1] (PEG400, oral) was determined as 61%; in test [1] (corn oil, oral) it was 78%. In addition, the inhibition at 10 µM in test [2] (Homo sapiens) came out at 97.3%. Besides, it took 330 nM to reach half-maximal inhibition in test [3] (IC50).

On to `CC1CN(c2ccc(NC=C3C(=O)Nc4ccc(F)cc43)cc2)CC(C)O1` (stereo not shown) [Example 219, 3-{[4-(2,6-Dimethyl-morpholin-4-yl)-phenylamino]-methylene}-5-fluoro-1,3-dihydro-indol-2-one], for which the “Miles Assay % inhibition” value in test [1] (PEG400, oral) was found to be 28%. Moreover, the IC50 is 620 nM in test [2], not above 1000 nM in test [2] (Homo sapiens) and 220 nM in test [3]. For the same compound, the inhibition at 10 µM in test [2] (Homo sapiens) was found to be 97.4%.

`CN1CCN(c2ccc(NC=C3C(=O)Nc4ccccc43)cc2)CC1` [Example 157, 3-{[4-(4-Methyl-piperazin-1-yl)-phenylamino]-methylenel}-1,3-dihydro-indol-2-one]: the “Miles Assay % inhibition” value in test [1] (PEG400, oral) stood at 38%. Moreover, the inhibition at 10 µM in test [2] (Homo sapiens) is 97.9%. Besides, the IC50 in test [3] was determined as 250 nM.

In the case of `Nc1cccc(NC=C2C(=O)Nc3ccccc32)c1` [Example 211, 3-[(3-Amino-phenylamino)-methylene]-1,3-dihydro-indo1-2-one], in test [1] (PEG400, oral), the “Miles Assay % inhibition” value is 38%. For the same compound, the IC50 is 660 nM in test [2], not above 1000 nM in test [2] (Homo sapiens) and 460 nM in test [3]. In addition, the inhibition at 10 µM in test [2] (Homo sapiens) worked out at 96.7%.

Turning to `O=C1Nc2ccccc2C1=CNc1ccc(OCCCN2CCOCC2)cc1` [Example 215, 3-{[4-(3-Morpholin-4-yl-propoxy)-phenylamino]-methylene}-1,3-dihydro-indol-2-one], in test [1] (PEG400, oral), the “Miles Assay % inhibition” value was determined as 53%. The IC50 in test [2] is 670 nM; in test [2] (Homo sapiens) it was not above 1000 nM; in test [3], 340 nM. In addition, the inhibition at 10 µM in test [2] (Homo sapiens) amounted to 96.7%.

Regarding `CC1CN(c2ccc(NC=C3C(=O)Nc4cc(F)ccc43)cc2)CC(C)O1` (stereo not shown) [Example 229, 3-{[4-(2,6-Dimethyl-morpholin-4-yl)-phenylamino]-methylene}-6-fluoro-1,3-dihydro-indol-2-one], the “Miles Assay % inhibition” value in test [1] (PEG400, oral) turned out to be 97%. In addition, in test [2] (Homo sapiens), the inhibition at 10 µM was found to be 97.2%. This compound had a concentration for half-maximal inhibition (IC50) in test [3] of 110 nM.

Regarding `O=C1Nc2cc(F)ccc2C1=CNc1ccc(NCCN2CCOCC2)cc1` [Example 243, 6-Fluoro-3-{[4-(2-morpholin-4-yl-ethylamino)-phenylamino]-methylene}-1,3-dihydro-indol-2-one], the “Miles Assay % inhibition” value in test [1] (corn oil, oral) amounted to 100%. Moreover, in test [2] (Homo sapiens), the inhibition at 10 µM is 95.6%. Further, in test [3], the IC50 worked out at 110 nM.

With `CN(C)c1ccc(NC=C2C(=O)Nc3ccccc32)cc1` [Example 156, 3-[(4-Dimethylamino-phenylamino)-methylene]-1,3-dihydro-indol-2-one], in test [1] (PEG400, oral), the “Miles Assay % inhibition” value was found to be 100%. For the same compound, the figures for the IC50 in test [2], in test [2] (Homo sapiens) and in test [3] were 830 nM, not above 1000 nM and 510 nM, respectively. Also, the inhibition at 10 µM in test [2] (Homo sapiens) was determined as 95.4%.

`O=C1Nc2ccccc2C1=CNc1ccc(OCCCCN2CCCC2)cc1` [Example 179, 3-{[4-(4-Pyrrolidin-1-yl-butoxy)-phenylamino]-methylene}-1,3-dihydro-indol-2-one]: in test [1] (PEG400, oral), the “Miles Assay % inhibition” value amounted to 65%. For the same compound, the IC50 in test [2] was 640 nM; in test [2] (Homo sapiens), not above 1000 nM; in test [3], 310 nM. In test [2] (Homo sapiens), the inhibition at 10 µM turned out to be 97.3%.

For the origin of these results see patent US20030225152A1, “3-(Arylamino)methylene-1, 3-dihydro-2h-indol-2-ones as kinase inhibitors” (priority 2001, published 2003).
